Source: publication PMC3813006 (Bioorganic & medicinal chemistry, 2009)

Assays:
[1] = Cytotoxicity in cultured L6 rat myoblast cells; format: cell-based; conditions: rat, L6 rat myoblast cells
L6 rat myoblast cells = test: Cytotoxicity in cultured L6 rat myoblast cells; format: cell-based; conditions: read-out: Cytotoxicity IC50; cultured L6 rat myoblast cells
[2] = system: Trypanosoma brucei rhodesiense STIB900; test: In vitro antitrypanosomal assay, T. b. r. STIB900; format: cell-based; conditions: RHODESIENSE|STIB900, read-out: T. b. r. IC50
Plasmodium falciparum K1 = test: microbe, parasite or virus in culture; conditions: K1, read-out: P. f. IC50

SMILES: N=C(N)c1ccc(-c2ccc(-c3ccc(C(=N)N)cc3)cc2)cc1 [6a]
- IC50 [1]: 22.1 µM

SMILES: N=C(N)c1ccc(-c2ccc(-c3ccc(C(=N)N)cc3)nn2)cc1 [15b]
- IC50 (L6 rat myoblast cells): 31.3 µM

SMILES: N=C(N)c1ccc(-c2ccc(-c3ccc(C(=N)N)cn3)o2)cc1 [3a, azafuramidine]
- IC50 [2]: 0.0065 µM
- IC50 (Plasmodium falciparum K1): 0.0065 µM
